# According to PMC6946680, “Modulation of brain cation-Cl^− cotransport via the SPAK kinase inhibitor ZT-1a” (Nature Communications, 2020):
# Test system: mouse primary cortical neurons
# Test: Cell volume measurement (calcein-AM) under hyperosmotic stress, primary cortical neurons
structure (smiles),measurement,setting,value
"Cc1cc(C(C#N)c2ccc(Cl)cc2)c(Cl)cc1NC(=O)c1cc(Cl)ccc1O (stereo not drawn) [ZT-1a, 5-chloro-N-(5-chloro-4-((4-chlorophenyl)(cyano)methyl)-2-methylphenyl)-2-hydroxybenzamide]",Cell water (relative change),"Fig 5b trace, Time 1.00403",1.0915 relative change
same,Cell water (relative change),"Fig 5b trace, Time 2.00427",1.001 relative change
same,Cell water (relative change),"Fig 5b trace, Time 3.00425",0.9646 relative change
same,Cell water (relative change),"Fig 5b trace, Time 4.00423",0.9689 relative change
same,Cell water (relative change),"Fig 5b trace, Time 5.0042",0.9837 relative change
same,Cell water (relative change),"Fig 5b trace, Time 6.00445",0.7025 relative change
same,Cell water (relative change),"Fig 5b trace, Time 7.00442",0.636 relative change
same,Cell water (relative change),"Fig 5b trace, Time 8.00435",0.6336 relative change
same,Cell water (relative change),"Fig 5b trace, Time 9.00452",0.5971 relative change
same,Cell water (relative change),"Fig 5b trace, Time 10.0046",0.5748 relative change
same,Cell water (relative change),"Fig 5b trace, Time 11.0045",0.5229 relative change
same,Cell water (relative change),"Fig 5b trace, Time 12.0045",0.4882 relative change
same,Cell water (relative change),"Fig 5b trace, Time 13.0045",0.4496 relative change
same,Cell water (relative change),"Fig 5b trace, Time 14.0045",0.4313 relative change
same,Cell water (relative change),"Fig 5b trace, Time 15.0047",0.4596 relative change
same,Cell water (relative change),"Fig 5b trace, Time 16.0047",0.433 relative change
same,Cell water (relative change),"Fig 5b trace, Time 17.0047",0.4137 relative change
same,Cell water (relative change),"Fig 5b trace, Time 18.0047",0.4143 relative change
same,Cell water (relative change),"Fig 5b trace, Time 19.0049",0.386 relative change
same,Cell water (relative change),"Fig 5b trace, Time 20.0049",0.3846 relative change
same,Cell water (relative change),"Fig 5b trace, Time 21.0048",0.3598 relative change
same,Cell water (relative change),"Fig 5b trace, Time 22.0048",0.3067 relative change
same,Cell water (relative change),"Fig 5b trace, Time 23.005",0.3082 relative change
same,Cell water (relative change),"Fig 5b trace, Time 24.0048",0.3082 relative change
same,Cell water (relative change),"Fig 5b trace, Time 25.005",0.2995 relative change
same,Cell water (relative change),"Fig 5b trace, Time 26.0053",0.543 relative change
same,Cell water (relative change),"Fig 5b trace, Time 27.005",0.6295 relative change
same,Cell water (relative change),"Fig 5b trace, Time 28.005",0.7317 relative change
same,Cell water (relative change),"Fig 5b trace, Time 29.0051",0.8403 relative change
same,Cell water (relative change),"Fig 5b trace, Time 30.005",0.9491 relative change
same,Cell water (relative change),"Fig 5b trace, Time 31.005",1.001 relative change
same,Cell water (relative change),"Fig 5b trace, Time 32.005",1.095 relative change
same,Cell water (relative change),"Fig 5b trace, Time 33.0052",1.18 relative change
same,Cell water (relative change),"Fig 5b trace, Time 34.0052",1.2174 relative change
same,Cell water (relative change),"Fig 5b trace, Time 35.0052",1.246 relative change
same,Cell water (relative change),Time 1.0036,0.9411
same,Cell water (relative change),Time 2.0038,0.9678
same,Cell water (relative change),Time 3.0038,0.9873
same,Cell water (relative change),Time 4.0037,1.0365
same,Cell water (relative change),Time 5.0037,1.0673
same,Cell water (relative change),Time 6.0037,0.3755
same,Cell water (relative change),Time 7.0039,0.3590
same,Cell water (relative change),Time 8.0040,0.3612
same,Cell water (relative change),Time 9.0042,0.3419
same,Cell water (relative change),Time 10.0039,0.3164
same,Cell water (relative change),Time 11.0039,0.3660
same,Cell water (relative change),Time 12.0039,0.3218
same,Cell water (relative change),Time 13.0041,0.3220
same,Cell water (relative change),Time 14.0041,0.3646
same,Cell water (relative change),Time 15.0040,0.4243
same,Cell water (relative change),Time 16.0040,0.3424
same,Cell water (relative change),Time 17.0040,0.4003
same,Cell water (relative change),Time 18.0045,0.3516
same,Cell water (relative change),Time 19.0042,0.3431
same,Cell water (relative change),Time 20.0042,0.3283
same,Cell water (relative change),Time 21.0042,0.3207
same,Cell water (relative change),Time 22.0041,0.3314
same,Cell water (relative change),Time 23.0044,0.2994
same,Cell water (relative change),Time 24.0044,0.3371
same,Cell water (relative change),Time 25.0043,0.3486
same,Cell water (relative change),Time 26.0043,0.4588
same,Cell water (relative change),Time 27.0043,0.5973
same,Cell water (relative change),Time 28.0045,0.7262
same,Cell water (relative change),Time 29.0044,0.8045
same,Cell water (relative change),Time 30.0044,0.9325
same,Cell water (relative change),Time 31.0046,1.0105
same,Cell water (relative change),Time 32.0046,1.1112
same,Cell water (relative change),Time 33.0046,1.1274
same,Cell water (relative change),Time 34.0045,1.2089
